In US5137889A, “Dihydropyridine derivatives and process for preparing the same” (Otsuka Pharmaceutical Co., Ltd., priority 1983, dated 1992):
Read-outs that look alike come from different tables or passages of the source.

Tests used:
[1] = molecular target: T1, Cyclic-AMP phosphodiesterase (Bos taurus, UniProt P14100); test: Cyclic AMP phosphodiesterase inhibitory activity (absence of calmodulin, EGTA in place of CaCl2); type: biochemical, bovine; details: 1 mM EGTA in place of CaCl2; 3 hours
T1 construct: from tissue; host or cells: bovine heart, partially purified
Source text: (§1) (2) Calmodulin-dependent cyclic-AMP phosphodiesterase (EC 3.1.4.17): An enzyme substance isolated from the heart of bovine and purified partially by a method of modified version of the disclosure in H. C. Ho, T. S. Teo, et al.: "Biochim. Biophys. Acta", 429, 461 (1976).
(§2) (3) 5'-Nucleotidase (EC 3.1.3.5): Grade IV substance (isolated from Crotalus adamanteus venom) manufactured by Sigma & Co.
(§3) (4) Others: Remainder of the reagents used in the test were those of reagent grade chemicals manufactured by Wako Pure-Chemical Industries, Ltd.
(§4) Calmodulin inhibitory activity of each of the test compounds was measured by a method of modified version of the disclosure in T. S. Teo and T. H. Wang: "J. Bio. Chem.", 248, 588 (1973).
(§5) (3) 5'-Nucleotidase: One unit thereof hydrolyzes 1.0 micromole of inorganic phosphorus from adnosine 5'-monophosphate per minute at pH 9.0 at 37° C.
(2) Cyclic AMP phosphodiesterase inhibitory activity:
The reaction was conducted by a method similar to that described in (1) as mentioned above, except that 1 mM of EGTA [ethylene glycol-bis(β-amino ethyl ether)-N,N-tetraacetic acid] was used in place of 20 mM of CaCl2. The reaction was conducted for 3 hours.

[2] = molecular target: T2, Calmodulin-cyclic-AMP phosphodiesterase (Bos taurus, UniProt P62157); test: Calmodulin-cyclic-AMP phosphodiesterase inhibitory activity (presence of calmodulin); type: biochemical, bovine
T2 construct: tissue Amano & Co. (calmodulin only); host or cells: phosphodiesterase: bovine heart, partially purified; calmodulin: bovine brain
Source text: (1) Calmodulin: A calmodulin product manufactured by Amano & Co., which was isolated from the brain of bovine, and purified so as to be considered as a single substance with respect to SDS-page (polyacrylamide gel electrophoresis) method.
as §1, §2, §3, §4
(2) Calmodulin: One unit thereof stimulates 0.015 activated unit of cyclic-AMP phosphodiesterase to 50% of the maximum activity of the enzyme.
as §5
(1) Calmodulin-cyclic-AMP phosphodiesterase inhibitory activity:
40 mM of Imidazol, 20 mM of MgCl2, 20 mM of CaC12, 0.008 unit of cyclic-AMP phosphodiesterase, 1.0 unit of calmodulin, 0.2 unit of 5'-nucleotidase and 1.0 ml of 10 mM-tris(hydroxymethyl)aminomethane/HCl buffer solution (pH 7.0) containing 0.5 mM of cyclic-AMP were mixed together, and reacted at 30° C. for 30 minutes. Each of the test compounds was dissolved in methanol or N,N-dimethylformamide as the solvent, provided that the quantity of the solvent was not exceed 2% of the total amount of the mixture. After the reaction was completed, the reaction mixture was ice-cooled, and 0.5 ml each of aqueous solutions of 16.5%-trichloroacetic acid, 1%-thiourea, 3%-ammonium ferrous sulfate were respectively added to the reaction mixture. Further, 0.15 ml of 4.4%-ammonium molibdate solution was added to the mixture and the whole of the mixture was stirred, and was centrifuged at 3,000 r.p.m. for 10 minutes. Then, the centrifuged mixture was allowed to stand at a room temperature for 20 minutes. The OD660 nm (optical density at 660 nm) was measured.

[3] = test system: SHR-rats (spontaneously hypertensive rats); details: 30 mg/kg p.o.
Protocol: Systolic blood pressures and heart beat of SHR-rats (spontaneously hypertensive rats) were determined by a "tail cuff method". Thus the test animal was placed in a thermostat chamber (Type: FR-12RS, manufactured by Isuze & Co.) and was warmed at 40° C. for 15 minutes so as to vasodilate the tail arteria, the systolic blood pressures were measured by an electro sphygmomanometer (Type: PE-300, manufactured by Narco-Biosystems, Inc.) and recorded by an ink-writing recorder (Type: RECTI-HORIZ 8s, manufactured by San-Ei Instrument & Co.). The experiments were conducted under non-anesthetized and semi-confinement conditions. The test compound was orally administered forcedly by using a sonde for oral administration. The test compound was suspended in 0.15%-gum arabic powder aqueous solution so as to make the quantity of the test compound to 2.5 ml/kg. The test animal was not fasted, and the systolic blood pressures (mm-Hg) were measured before the administration (hereinafter referred to as "PRE") and after the administration (8, 24, 30, 48, 54 and 72 hours after the administration) of the test compound. The data of systolic blood pressure measured before the administration are shown in absolute value of mmHg, and the data measured after the administration are shown in the differences from the absolute values.

[4] = with calmodulin and CaCl2, pH 7.0, 30° C., 30 minutes, read-out: Calmodulin-cyclic-AMP phosphodiesterase IC50 (converted)

T1 sequence (P14100 1-514 isoform P14100-2): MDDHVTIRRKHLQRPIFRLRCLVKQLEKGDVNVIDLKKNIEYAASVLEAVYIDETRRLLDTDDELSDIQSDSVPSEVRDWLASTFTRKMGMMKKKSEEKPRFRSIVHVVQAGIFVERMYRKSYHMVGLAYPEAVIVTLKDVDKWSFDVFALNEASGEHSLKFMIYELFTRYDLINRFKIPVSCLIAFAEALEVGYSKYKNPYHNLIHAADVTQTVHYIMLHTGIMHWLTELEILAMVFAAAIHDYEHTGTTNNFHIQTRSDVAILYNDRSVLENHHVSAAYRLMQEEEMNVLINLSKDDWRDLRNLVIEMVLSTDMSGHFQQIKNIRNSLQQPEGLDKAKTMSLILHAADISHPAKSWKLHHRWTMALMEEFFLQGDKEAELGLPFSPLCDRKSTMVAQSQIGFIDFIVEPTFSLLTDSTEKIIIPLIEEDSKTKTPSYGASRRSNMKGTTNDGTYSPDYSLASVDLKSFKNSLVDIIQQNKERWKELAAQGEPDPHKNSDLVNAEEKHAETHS

Row | Molecule | IC50 [1] [µM] | IC50 [2, 4] [µM] | also measured
1 | COC(=O)C1=C(C)NC(C)=C(C(=O)OC/C=C/c2ccc(O)cc2)C1c1ccc(OC)c(OC)c1 (stereo not shown) [Test Compound 20, Methyl 3-(4-hydroxyphenyl)-2(E)-propenyl 1,4-dihydro-2,6-dimethyl-4-(3,4-dimethoxy-phenyl)pyridine-3,5-dicarboxylate] | 62.6 | 6.67 | 
2 | COC(=O)C1=C(C)NC(C)=C(C(=O)OC/C=C/c2ccccc2O)C1c1cccc([N+](=O)[O-])c1 (stereo not shown) [Test Compound 13, Methyl 3-(2-hydroxyphenyl)-2(E)-propenyl 1,4-dihydro-2,6-dimethyl-4-(3-nitrophenyl)-pyridine-3,5-dicarboxylate] |  | 3.55 | 
3 | COC(=O)C1=C(C)NC(C)=C(C(=O)OC/C=C/c2ccccc2)C1c1cccc([N+](=O)[O-])c1 (stereo not shown) [Test Compound 2, Methyl 3-phenyl-2(E)-propenyl 1,4-dihydro-2,6-dimethyl-4-(3-nitrophenyl)pyridine-3,5-dicarboxylate] |  | 5.57 | 
4 | COC(=O)C1=C(C)NC(C)=C(C(=O)OC/C=C/c2ccc(O)cc2)C1c1ccccc1C(F)(F)F (stereo not shown) [Example 14] |  | 12.8 | 
5 | methyl 3-[4-(2-tetrahydropyranyloxyphenyl)]-2-propynyl 1,4-dihydro-2,6-dimethyl-4-(3-nitrophenyl)pyridine-3,5-dicarboxylate [Example 3] |  |  | Blood pressure after the administration, 24 hours (difference from the absolute value before administration) [3]: -31.0 mm-Hg; Blood pressure after the administration, 30 hours (difference from the absolute value before administration) [3]: -30.8 mm-Hg; Blood pressure after the administration, 48 hours (difference from the absolute value before administration) [3]: -15.6 mm-Hg; Blood pressure after the administration, 54 hours (difference from the absolute value before administration) [3]: -12.6 mm-Hg
6 | COC(=O)C1=C(C)NC(C)=C(C(=O)OCCN2CC=C(c3ccc(C)cc3)CC2)C1c1cccc([N+](=O)[O-])c1 (stereo not shown) [Test Compound 17, Methyl 2-[4-(4-methylphenyl)-1,2,3,6-tetra-hydropyridyl]ethyl 1,4-dihydro-2,6-dimethyl-4-(3-nitrophenyl)pyridine-3,5-dicarboxylate] | > 188 | 10.3 | 
7 | COC(=O)C1=C(C)NC(C)=C(C(=O)OC/C=C/c2cccc(O)c2)C1c1cccc([N+](=O)[O-])c1 (stereo not shown) [Test Compound 25, Methyl 3-(3-hydroxyphenyl)-2(E)propenyl 1,4-dihydro-2,6-dimethyl-4-(3-nitrophenyl)-pyridine-3,5-dicarboxylate] | 53 | 1.94 | 
8 | COC(=O)C1=C(C)NC(C)=C(C(=O)OC/C=C/c2ccc(OC(C)=O)cc2)C1c1cccc([N+](=O)[O-])c1 (stereo not shown) [Test Compound 16, Methyl 3-(4-acetyloxyphenyl)-2(E)-propenyl 1,4-dihydro-2,6-dimethyl-4-(3-nitrophenyl)-pyridine-3,5-dicarboxylate] |  | 5.92 | 
9 | COC(=O)C1=C(C)NC(C)=C(C(=O)OC/C=C/c2ccc(O)c(OC)c2)C1c1cccc([N+](=O)[O-])c1 (stereo not shown) [Test Compound 7, Methyl 3-(3-methoxy-4-hydroxyphenyl)-2(E)-propenyl 1,4-dihydro-2,6-dimethyl-4-(3-nitrophenyl)pyridine-3,5-dicarboxylate] |  | 10.5 | 
10 | COC(=O)C1=C(C)NC(C)=C(C(=O)OCCN(C)Cc2ccccc2)C1c1cccc([N+](=O)[O-])c1 (stereo not shown) [Test Compound 26, Methyl 2-(N-methyl-N-benzylamino)ethyl 1,4-dihydro-2,6-dimethyl-4-(3-nitrophenyl)pyridine-3,5-dicarboxylate, reference compound] |  |  | IC50 [2]: 13 µM
11 | COC(=O)C1=C(C)NC(C)=C(C(=O)OC/C=C/c2ccc(O)cc2)C1c1ccccc1C (stereo not shown) [Test Compound 19, Methyl 3-(4-hydroxyphenyl)-2(E)-propenyl 1,4-dihydro-2,6-dimethyl-4-(2-methylphenyl)-pyridine-3,5-dicarboxylate] |  | 13.4 | 
12 | COC(=O)C1=C(C)NC(C)=C(C(=O)OCC#Cc2cccs2)C1c1cccc([N+](=O)[O-])c1 (stereo not shown) [Test Compound 22, Methyl 3-(2-thienyl)-2-propynyl 1,4-dihydro-2,6-dimethyl-4-(3-nitrophenyl)pyridine-3,5-dicarboxylate] | > 221 | 2.43 | 
13 | COC(=O)C1=C(C)NC(C)=C(C(=O)OC/C=C/C=C/c2ccc(O)cc2)C1c1cccc([N+](=O)[O-])c1 (stereo not shown) [Test Compound 3, Methyl 5-(4-hydroxyphenyl)-2(E),4(E)-pentadienyl 1,4-dihydro-2,6-dimethyl-4-(3-nitrophenyl)-pyridine-3,5-dicarboxylate] |  | 1.73 | 
14 | COC(=O)C1=C(C)NC(C)=C(C(=O)OC/C=C/c2ccc(O)cc2)C1c1ccccc1 (stereo not shown) [Test Compound 18, Methyl 3-(4-hydroxyphenyl)-2(E)-propenyl 1,4-dihydro-2,6-dimethyl-4-phenylpyridine-3,5-dicarboxylate] |  | 16.2 | 
15 | COC(=O)C1=C(C)NC(C)=C(C(=O)OC/C=C/c2nnnn2C)C1c1cccc([N+](=O)[O-])c1 (stereo not shown) [Test Compound 9, Methyl 3-(1-methyl-1,2,3,4-tetrazol-5-yl)-2(E)-propenyl 1,4-dihydro-2,6-dimethyl-4-(3-nitrophenyl)pyridine-3,5-dicarboxylate] | 79.2 | 11.7 | 
16 | COC(=O)C1=C(C)NC(C)=C(C(=O)OC/C=C/c2ccc(O)cc2)C1c1ccc(Cl)cc1Cl (stereo not shown) [Test Compound 24, Methyl 3-(4-hydroxyphenyl)-2(E)propenyl 1,4-dihydro-2,6-dimethyl-4-(2,4-dichloro-phenyl)pyridine-3,5-dicarboxylate] | 30.7 | 5.02 | 
17 | COC(=O)C1=C(C)NC(C)=C(C(=O)OCCN2CCN(CC#Cc3ccccc3)CC2)C1c1cccc([N+](=O)[O-])c1 (stereo not shown) [Test Compound 23, Methyl 2-[4-(3-phenyl-2-propynyl)-1-piperazinyl]ethyl 1,4-dihydro-2,6-dimethyl-4-(3-nitrophenyl)pyridine-3,5-dicarboxylate] | > 179 | 14.3 | 
18 | methyl 3-(4-tetrahydropyranyloxyphenyl)-2(E)-propenyl 1,4-dihydro-2,6-dimethyl-4-(3-nitrophenyl)pyridine-3,5-dicarboxylate [Example 1] |  |  | Blood pressure after the administration, 8 hours (difference from the absolute value before administration) ([3]; 8 hours): -20.3 mm-Hg; Blood pressure after the administration, 24 hours (difference from the absolute value before administration) [3]: -41.0 mm-Hg; Blood pressure after the administration, 24 hours (difference from the absolute value before administration) ([3]; listed as 6): +1.8 mm-Hg; Blood pressure after the administration, 30 hours (difference from the absolute value before administration) [3]: -52.0 mm-Hg; Blood pressure after the administration, 48 hours (difference from the absolute value before administration) [3]: -26.5 mm-Hg; Blood pressure after the administration, 54 hours (difference from the absolute value before administration) [3]: -19.8 mm-Hg; Blood pressure after the administration, 72 hours (difference from the absolute value before administration) ([3]; 72 hours): -12.5 mm-Hg
19 | COC(=O)C1=C(C)NC(COC/C=C/c2ccc(O)cc2)=C(C(=O)OC)C1c1cccc([N+](=O)[O-])c1 (stereo not shown) [Test Compound 21, Dimethyl 1,4-dihydro-2-[3-(4-hydroxyphenyl)-2(E)-propenyloxymethyl]-6-methyl-4-(3-nitrophenyl)pyridine-3,5-dicarboxylate] | > 202 | 12.1 | 
20 | COC(=O)C1=C(C)NC(C)=C(C(=O)OC/C=C/c2ccc(OC)cc2)C1c1cccc([N+](=O)[O-])c1 (stereo not shown) [Test Compound 8, Methyl 3-(4-methoxyphenyl)-2(E)-propenyl 1,4-dihydro-2,6-dimethyl-4-(3-nitrophenyl)-pyridine-3,5-dihydrocarboxylate] |  | 5.64 | 
